The values below come from PMC3435281 (PLoS ONE, 2012).

The target in one series is T1, murine AHR^d (Mus musculus, UniProt P30561, A375V).
T1 sequence (P30561 10-848 A375V): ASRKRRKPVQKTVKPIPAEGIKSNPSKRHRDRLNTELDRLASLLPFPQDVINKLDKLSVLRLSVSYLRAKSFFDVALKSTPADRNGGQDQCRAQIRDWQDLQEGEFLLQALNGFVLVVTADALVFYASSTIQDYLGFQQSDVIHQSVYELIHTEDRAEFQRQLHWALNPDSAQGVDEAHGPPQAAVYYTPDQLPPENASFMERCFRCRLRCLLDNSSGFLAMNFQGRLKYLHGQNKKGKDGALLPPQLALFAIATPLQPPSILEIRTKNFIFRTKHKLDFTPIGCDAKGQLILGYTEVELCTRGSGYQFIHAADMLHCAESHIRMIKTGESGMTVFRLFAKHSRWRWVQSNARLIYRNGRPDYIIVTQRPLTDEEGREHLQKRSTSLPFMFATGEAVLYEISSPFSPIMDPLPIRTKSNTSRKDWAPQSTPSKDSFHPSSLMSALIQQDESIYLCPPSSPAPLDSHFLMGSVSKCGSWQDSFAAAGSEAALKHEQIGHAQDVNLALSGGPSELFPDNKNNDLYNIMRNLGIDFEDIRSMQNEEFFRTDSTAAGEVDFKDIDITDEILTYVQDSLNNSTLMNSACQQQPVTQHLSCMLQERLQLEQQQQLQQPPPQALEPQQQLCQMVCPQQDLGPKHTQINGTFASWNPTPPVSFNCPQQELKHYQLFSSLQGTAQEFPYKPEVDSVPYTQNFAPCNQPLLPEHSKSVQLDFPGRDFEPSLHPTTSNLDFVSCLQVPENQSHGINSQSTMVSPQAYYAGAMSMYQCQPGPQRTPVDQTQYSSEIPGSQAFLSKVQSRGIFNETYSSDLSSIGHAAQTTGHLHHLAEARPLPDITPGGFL
Description: EROD activity in AHR^d-15 cells (rat hepatoma BP8 stably transfected with AHR^d). The source says: The 100 “hit compounds” from the primary screen were subsequently screened for their capacity to activate the low-affinity murine AHR^d receptor isoform using the activity of the endogenous Cyp1a1 gene as a readout. To this end, we established a hepatoma cell line that expresses the AHR^d receptor isoform derived from the DBA/2J mouse. An AHR^d-expressing cell line was generated by stably transfecting the AHR^d cDNA into the rat hepatoma AHR-deficient cell line, BP8 [15]. After stable selection with G418, a subclone (AHR^d-15) was analyzed for receptor expression and function. […] To confirm that the AHR^d-15 clone expressed a functional low affinity AHR^d isoform, we examined the receptor-mediated response to the prototype agonists, TCDD and β-naphthoflavone (BNF).
To test the ability of the 100 AHR inducers to activate the AHR^d-15 cells, they were treated with each of the compounds at the dose of 1 µM, for 36 hours in 96-well plates.
Figure 3 In Vitro dose response curves. A. Rat hepatoma cell lines bearing the murine AHR^d (AHR^d-15) or the rat AHR^b (5L) were incubated with increasing doses of TCDD in 96-well plates. After 40 hours, EROD activity was performed from whole cell lysate. (n = 3). […] (n = 3). C. Same assay as in A, with increasing doses of BNF. (n = 2). […] Following 48 hours, hepatic microsomal proteins were isolated and used for the assessment of EROD activity. Animals were treated in groups of 4. Error bars: S.D.
The open reading frame of the AHR^d gene (PL2047) was amplified by PCR using oligos OL5127 (5′-[…]-3′) and OL5128 (5′-[…]-3′). The product was ligated into the pTARGET™ mammalian expression vector (Promega, Madison, WI). The resulting plasmid was transfected into the AHR-deficient cell line, BP8 [15], using Effectene transfection reagent (Qiagen Inc., Valencia, CA). Stable integrants were selected with 6 mg/ml of G418 for 2 weeks, beginning at 48-hours post-transfection. Clones derived from single cells were screened for their response to nanomolar doses of dioxin or micromolar doses of BNF, as measured by ethoxyresorufin O-deethylase (EROD) activity. […] The validated cell line used in these studies was designated line AHR^d-15.
High-throughput analysis of EROD activity was assayed by adapting a protocol that was described elsewhere, [63]. Briefly, cells were seeded into 96-well plates at ∼ 60% density and treated with the test compounds for 36 hours. The cells were washed with PBS and lysed with 30 µL water and a cycle of freeze-thaw. To each well, 150 µL of 50 mM Hepes buffer containing 26.7 µM dicumarol and 13.3 µM ethoxyresorufin were added. The samples were incubated at 30°C for 20 minutes, and 50 µL of 0.5 mM β-NADPH were added to initiate the reaction. Fluorescence of the resorufin product was detected using the 544 nm excitation and 590 nm emission wavelength filter set.

In series [1] the test system is CYP1A1 (induction through AHR^b). Description: CYP1A1 qPCR in wild-type splenocytes. The following applies: C57BL/6J, mouse. The method, then:
As the above in vitro experiments were performed in cell lines, we next utilized AHR^b (C57BL/6J) and AHR^d congenic mice (on a C57BL/6J background). […] Normalized data was chosen to allow comparison of CYP1A1 upregulation to its maximum in AHR^b versus AHR^d mice.
Figure 4 Splenocytes from wild-type and AHR^d mice analyzed by qPCR for CYP1A1. […] After 4 hours they were analyzed by qPCR for CYP1A1 analysis. The curves are normalized from 0 to 100% response. […] Cos-1 cells were transfected with an AHR containing the same point mutation (valine for alanine) thought to be responsible for the low affinity of the AHR^d isoform compared to AHR^b, and compared to the wild-type AHR response. These cells also harbor a luciferase gene next to the DRE. C. Cos-1 cells were exposed to TCDD. […]
Spleen was harvested from mice at the time of euthanasia and single cell suspensions were made. […] The relative quantitation PCR for IDO1 (Mm00492586-m1) and GAPDH (4352339-E0806018) were performed in the Applied Biosystems 7900HT Fast Real-Time PCR System (Applied Biosystems), and TaqMan Universal PCR Master Mix (Applied Biosystems) was used as a reaction reagent. The relative quantitation PCR for Foxp3, CYP1A1, CYP1B1, and GAPDH were processed by the Bio-Rad iCycler (Bio-Rad) and iQ SYBR Green Supermix ([…]) was used as the reaction reagent.

Molecules are shown by their SMILES.

The term EC50 denotes the concentration at which the effect is half-maximal. Lower therefore signals a more potent agent. Regarding `Clc1cc2c(cc1Cl)Oc1cc(Cl)c(Cl)cc1O2` [TCDD, 2,3,7,8-tetrachlorodibenzo-p-dioxin], the EC50 at murine AHR^d was ~30 nM. Moreover, the “induction of AHR^d-mediated EROD activity” value at murine AHR^d (AHR^d-15 cells, positive control 2 nM, 36 hours) is “greater than 5 fold”. For the same compound, it took 0.461 nM to reach a half-maximal effect in series [1] (EC50 at 4 h).
